target: T1, GST-tagged truncated human mutant G2019S LRRK2 (Homo sapiens, UniProt Q5S007, G2019S); assay: LRRK2 G2019S Km ATP LanthaScreen assay; assay type: biochemical; settings: 134 μM ATP (Km ATP), LRRKtide substrate, mean of several tests, read-out: LRRK2 pIC50 (converted)
T1 construct: GST-tagged truncated human mutant G2019S LRRK2; purchased Life Technologies Corporation (Carlsbad, CA)
In short: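 IC50 values are means of repeat runs, fitted with a 4-parameter logistic to the 520/495 nm TR-FRET ratio from a Tb-labeled anti-phospho-LRRKtide antibody added with EDTA. Reactions ran 90 min at room temperature at Km ATP (134 μM) with fluorescein-LRRKtide, after 15-min compound preincubation with truncated GST-tagged G2019S LRRK2.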

T1 sequence (Q5S007 970-2527 G2019S limits assumed): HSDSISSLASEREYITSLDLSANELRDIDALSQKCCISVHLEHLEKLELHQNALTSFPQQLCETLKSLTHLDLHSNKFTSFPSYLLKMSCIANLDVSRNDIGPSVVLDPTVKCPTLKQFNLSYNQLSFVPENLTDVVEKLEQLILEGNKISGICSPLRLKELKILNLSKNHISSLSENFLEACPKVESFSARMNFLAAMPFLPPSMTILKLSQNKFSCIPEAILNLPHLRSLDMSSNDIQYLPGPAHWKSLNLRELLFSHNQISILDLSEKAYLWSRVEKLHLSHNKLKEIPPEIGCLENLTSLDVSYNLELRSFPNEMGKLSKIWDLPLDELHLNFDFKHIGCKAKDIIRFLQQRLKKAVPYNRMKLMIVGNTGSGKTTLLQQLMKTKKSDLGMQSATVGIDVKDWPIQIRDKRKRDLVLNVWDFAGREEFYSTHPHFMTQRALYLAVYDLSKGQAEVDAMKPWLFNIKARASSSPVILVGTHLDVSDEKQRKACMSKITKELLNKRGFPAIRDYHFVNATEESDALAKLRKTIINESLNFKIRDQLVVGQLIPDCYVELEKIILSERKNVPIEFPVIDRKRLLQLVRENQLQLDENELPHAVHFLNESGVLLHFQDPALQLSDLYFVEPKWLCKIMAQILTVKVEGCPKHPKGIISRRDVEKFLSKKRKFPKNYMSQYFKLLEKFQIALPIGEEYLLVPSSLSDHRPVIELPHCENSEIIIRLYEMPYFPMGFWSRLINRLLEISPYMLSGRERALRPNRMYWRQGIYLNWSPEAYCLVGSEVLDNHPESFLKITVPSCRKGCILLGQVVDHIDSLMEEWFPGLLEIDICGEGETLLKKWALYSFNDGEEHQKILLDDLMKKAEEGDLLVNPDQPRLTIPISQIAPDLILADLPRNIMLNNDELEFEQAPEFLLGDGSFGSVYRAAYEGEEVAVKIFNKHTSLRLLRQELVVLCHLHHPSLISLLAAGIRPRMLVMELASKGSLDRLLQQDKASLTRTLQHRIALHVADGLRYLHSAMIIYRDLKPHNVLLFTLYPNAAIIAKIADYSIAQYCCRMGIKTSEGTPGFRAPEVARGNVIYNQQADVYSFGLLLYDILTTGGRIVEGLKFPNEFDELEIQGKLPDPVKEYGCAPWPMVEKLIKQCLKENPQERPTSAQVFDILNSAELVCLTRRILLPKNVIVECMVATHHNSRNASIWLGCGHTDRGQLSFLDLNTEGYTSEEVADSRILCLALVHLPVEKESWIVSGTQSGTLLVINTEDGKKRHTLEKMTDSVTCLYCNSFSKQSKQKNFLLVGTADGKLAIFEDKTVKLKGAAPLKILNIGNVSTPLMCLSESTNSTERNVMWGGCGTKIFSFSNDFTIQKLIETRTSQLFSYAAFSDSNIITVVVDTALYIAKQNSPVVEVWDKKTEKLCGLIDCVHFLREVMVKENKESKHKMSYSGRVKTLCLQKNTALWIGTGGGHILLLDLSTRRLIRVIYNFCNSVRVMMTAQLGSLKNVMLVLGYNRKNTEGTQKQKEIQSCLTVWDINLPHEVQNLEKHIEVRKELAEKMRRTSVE

Q: Which IC50 does the source give for `CC1(N2CCN(c3cc4cc(NC(=O)C5CC56CCOCC6)ncc4cc3Cl)CC2)CCOC1` (single isomer, unassigned) [Ex-5.11] here?
A: Its IC50 is 2.45 nM.

Q: With `CC1(N2CCN(c3cc4cc(NC(=O)C5CC56CCOCC6)ncc4cc3Cl)CC2)CCOC1` (single isomer, unassigned) [Ex-5.12] as the compound, how does the IC50 read?
A: The IC50 was 126 nM.

Q: For `CC1(N2CCN(c3cc4cc(NC(=O)C5CC56CCOCC6)ncc4cc3Cl)CC2)CCOC1` (single isomer, unassigned) [Ex-5.13], which IC50 is on record?
A: Its IC50 is 83.2 nM.

Q: With `CC1(N2CCN(c3cc4cc(NC(=O)C5CC56CCOCC6)ncc4cc3Cl)CC2)CCOC1` (single isomer, unassigned) [Ex-5.14] as the compound, how does the IC50 read?
A: The IC50 was 302 nM.

Q: With `CC1(C#N)CCN(c2cc3cc(NC(=O)C4CC4c4cncnc4)ncc3cc2Cl)CC1` (single isomer, unassigned) [Ex-5.15] as the compound, how does the IC50 read?
A: The IC50 was 6.17 nM.

Q: How did the IC50 turn out when `CC1(C#N)CCN(c2cc3cc(NC(=O)C4CC4c4cncnc4)ncc3cc2Cl)CC1` (single isomer, unassigned) [Ex-5.16] was run?
A: The IC50 was 427 nM.

Q: For `N#CC1CCN(c2cc3cc(NC(=O)C4CC4c4cncnc4)ncc3cc2Cl)CC1` (single isomer, unassigned) [Ex-5.17], which IC50 is on record?
A: Its IC50 is 0.0813 nM.

Q: Which IC50 does the source give for `N#CC1CCN(c2cc3cc(NC(=O)C4CC4c4cncnc4)ncc3cc2Cl)CC1` (single isomer, unassigned) [Ex-5.18] here?
A: Its IC50 is 67.6 nM.

Q: `N#CC1(F)CCN(c2cc3cc(NC(=O)C4CC4c4cncnc4)ncc3cc2Cl)CC1` (single isomer, unassigned) [Ex-5.19] was tested. Which IC50 did it give?
A: Its IC50 is 117 nM.

Q: For `N#CC1(F)CCN(c2cc3cc(NC(=O)C4CC4c4cncnc4)ncc3cc2Cl)CC1` (single isomer, unassigned) [Ex-5.20], which IC50 is on record?
A: The IC50 was 9.12 nM.

Q: `Cc1cc2cnc(NC(=O)C3CC34CCOCC4)cc2cc1N1CCN(C2(C)COCC2O)CC1` (single isomer, unassigned) [Ex-6.1] was tested. Which IC50 did it give?
A: Its IC50 is 0.355 nM.

Q: For `Cc1cc2cnc(NC(=O)C3CC34CCOC4)cc2cc1N1CCN(C2(C)COCC2O)CC1` (single isomer, unassigned) [Ex-6.2, (1R, 3S or 1S,3R, or 1R,3S, or 1S,3S)-N-(6-(4-((3R, 4R or 3S,4S)-4-hydroxy-3-methyltetrahydrofuran-3-yl)piperazin-1-yl)-7-methylisoquinolin-3-yl)-5-oxaspiro[2.4]heptane-1-carboxamide], which IC50 is on record?
A: The IC50 was 1.38 nM.

Q: With `Cc1cc2cnc(NC(=O)C3CC34CCOC4)cc2cc1N1CCN(C2(C)COCC2O)CC1` (single isomer, unassigned) [Ex-6.3, (1R, 3S or 1S,3R, or 1R,3S, or 1S,3S)-N-(6-(4-((3R, 4R or 3S,4S)-4-hydroxy-3-methyltetrahydrofuran-3-yl)piperazin-1-yl)-7-methylisoquinolin-3-yl)-5-oxaspiro[2.4]heptane-1-carboxamide] as the compound, how does the IC50 read?
A: Its IC50 is 0.832 nM.

Q: With `Cc1cc2cnc(NC(=O)C3CC34CCOC4)cc2cc1N1CCN(C2(C)COCC2O)CC1` (single isomer, unassigned) [Ex-6.4, (1R, 3S or 1S,3R, or 1R,3S, or 1S,3S)-N-(6-(4-((3R, 4R or 3S,4S)-4-hydroxy-3-methyltetrahydrofuran-3-yl)piperazin-1-yl)-7-methylisoquinolin-3-yl)-5-oxaspiro[2.4]heptane-1-carboxamide] as the compound, how does the IC50 read?
A: Its IC50 is 1.07 nM.

Q: For `Cc1cc2cnc(NC(=O)C3CC34CCOC4)cc2cc1N1CCN(C2(C)COCC2O)CC1` (single isomer, unassigned) [Ex-6.5, (1R, 3S or 1S,3R, or 1R,3S, or 1S,3S)-N-(6-(4-((3R, 4R or 3S,4S)-4-hydroxy-3-methyltetrahydrofuran-3-yl)piperazin-1-yl)-7-methylisoquinolin-3-yl)-5-oxaspiro[2.4]heptane-1-carboxamide], which IC50 is on record?
A: The IC50 was 1.05 nM.

Q: How did the IC50 turn out when `Cc1cc2cnc(NC(=O)C3CC34CCOC4)cc2cc1N1CCN(C2(C)COCC2O)CC1` (single isomer, unassigned) [Ex-6.6, (1R, 3S or 1S,3R, or 1R,3S, or 1S,3S)-N-(6-(4-((3R, 4R or 3S,4S)-4-hydroxy-3-methyltetrahydrofuran-3-yl)piperazin-1-yl)-7-methylisoquinolin-3-yl)-5-oxaspiro[2.4]heptane-1-carboxamide] was run?
A: Its IC50 is 45.7 nM.

Q: For `Cc1cc2cnc(NC(=O)C3CC34CCOC4)cc2cc1N1CCN(C2(C)COCC2O)CC1` (single isomer, unassigned) [Ex-6.7, (1R, 3S or 1S,3R, or 1R,3S, or 1S,3S)-N-(6-(4-((3R, 4R or 3S,4S)-4-hydroxy-3-methyltetrahydrofuran-3-yl)piperazin-1-yl)-7-methylisoquinolin-3-yl)-5-oxaspiro[2.4]heptane-1-carboxamide], which IC50 is on record?
A: Its IC50 is 126 nM.

Q: Which IC50 does the source give for `Cc1cc2cnc(NC(=O)C3CC34CCOC4)cc2cc1N1CCN(C2(C)COCC2O)CC1` (single isomer, unassigned) [Ex-6.8, (1R, 3S or 1S,3R, or 1R,3S, or 1S,3S)-N-(6-(4-((3R, 4R or 3S,4S)-4-hydroxy-3-methyltetrahydrofuran-3-yl)piperazin-1-yl)-7-methylisoquinolin-3-yl)-5-oxaspiro[2.4]heptane-1-carboxamide] here?
A: Its IC50 is 631 nM.

Q: For `Cc1cc2cnc(NC(=O)C3CC34CCOC4)cc2cc1N1CCN(C2(C)COCC2O)CC1` (single isomer, unassigned) [Ex-6.9, (1R, 3S or 1S,3R, or 1R,3S, or 1S,3S)-N-(6-(4-((3R, 4R or 3S,4S)-4-hydroxy-3-methyltetrahydrofuran-3-yl)piperazin-1-yl)-7-methylisoquinolin-3-yl)-5-oxaspiro[2.4]heptane-1-carboxamide], which IC50 is on record?
A: The IC50 was 324 nM.

Q: `Cc1cc2cnc(NC(=O)C3CC3c3ccccn3)cc2cc1N1CCN(C2(C)COCC2F)CC1` (single isomer, unassigned) [Ex-6.13] was tested. Which IC50 did it give?
A: Its IC50 is 0.0813 nM.

Q: How did the IC50 turn out when `Cc1cc2cnc(NC(=O)C3CC3c3ccccn3)cc2cc1N1CCN(C2(C)COCC2F)CC1` (single isomer, unassigned) [Ex-6.14] was run?
A: Its IC50 is 0.148 nM.

Q: For `COC1CC(C(=O)Nc2cc3cc(N4CCN(C5(C)COCC5O)CC4)c(Cl)cc3cn2)C1` (single isomer, unassigned) [Ex-7.1], which IC50 is on record?
A: The IC50 was 0.832 nM.

Q: For `COC1CC(C(=O)Nc2cc3cc(N4CCN(C5(C)COCC5O)CC4)c(Cl)cc3cn2)C1` (single isomer, unassigned) [Ex-7.2], which IC50 is on record?
A: The IC50 was 0.977 nM.

Q: With `CC1(C)CC2(CCO1)CC2C(=O)Nc1cc2cc(N3CCN(C4(C)COCC4O)CC3)c(Cl)cc2cn1` (single isomer, unassigned) [Ex-7.3] as the compound, how does the IC50 read?
A: The IC50 was 3.72 nM.

Q: Which IC50 does the source give for `CC1(C)CC2(CCO1)CC2C(=O)Nc1cc2cc(N3CCN(C4(C)COCC4O)CC3)c(Cl)cc2cn1` (single isomer, unassigned) [Ex-7.4] here?
A: The IC50 was 0.776 nM.

Q: Which IC50 does the source give for `CC1(C)CC2(CCO1)CC2C(=O)Nc1cc2cc(N3CCN(C4(C)COCC4O)CC3)c(Cl)cc2cn1` (single isomer, unassigned) [Ex-7.5] here?
A: The IC50 was 0.155 nM.

Q: Which IC50 does the source give for `CC1C(C(=O)Nc2cc3cc(N4CCN(C5(C)CCOC5)CC4)c(Cl)cc3cn2)C1c1cnn(C)c1` (single isomer, unassigned) [Ex-9.7] here?
A: Its IC50 is 0.0813 nM.

Q: Which IC50 does the source give for `CC1C(C(=O)Nc2cc3cc(N4CCN(C5(C)CCOC5)CC4)c(Cl)cc3cn2)C1c1cnn(C)c1` (single isomer, unassigned) [Ex-9.8] here?
A: The IC50 was 4.9 nM.

Q: With `CC1C(C(=O)Nc2cc3cc(N4CCN(C5(C)CCOC5)CC4)c(Cl)cc3cn2)C1c1cnn(C)c1` (single isomer, unassigned) [Ex-9.9] as the compound, how does the IC50 read?
A: Its IC50 is 0.417 nM.

Q: Which IC50 does the source give for `CCC1C(C(=O)Nc2cc3cc(N4CCN(C5(C)CCOC5)CC4)c(Cl)cc3cn2)C1c1cnn(C)c1` (single isomer, unassigned) [Ex-9.10] here?
A: The IC50 was 0.0813 nM.

Q: Which IC50 does the source give for `CCC1C(C(=O)Nc2cc3cc(N4CCN(C5(C)CCOC5)CC4)c(Cl)cc3cn2)C1c1cnn(C)c1` (single isomer, unassigned) [Ex-9.11] here?
A: Its IC50 is 1.15 nM.

From US12516039B2, “N-linked isoquinoline amides as LRRK2 inhibitors, pharmaceutical compositions, and uses thereof” (Merck Sharp & Dohme LLC, priority 2020, dated 2026)
